Assay [1] has as its system B16-F10. The assay can be described thus: Cytotoxicity against mouse B16F10 cells at 20 ug/ml after 72 hrs by MTT assay. The class given is functional.
Assay [2] addresses T1, Tyrosinase (Agaricus bisporus, UniProt O42713).
T1 sequence (O42713 whole entry): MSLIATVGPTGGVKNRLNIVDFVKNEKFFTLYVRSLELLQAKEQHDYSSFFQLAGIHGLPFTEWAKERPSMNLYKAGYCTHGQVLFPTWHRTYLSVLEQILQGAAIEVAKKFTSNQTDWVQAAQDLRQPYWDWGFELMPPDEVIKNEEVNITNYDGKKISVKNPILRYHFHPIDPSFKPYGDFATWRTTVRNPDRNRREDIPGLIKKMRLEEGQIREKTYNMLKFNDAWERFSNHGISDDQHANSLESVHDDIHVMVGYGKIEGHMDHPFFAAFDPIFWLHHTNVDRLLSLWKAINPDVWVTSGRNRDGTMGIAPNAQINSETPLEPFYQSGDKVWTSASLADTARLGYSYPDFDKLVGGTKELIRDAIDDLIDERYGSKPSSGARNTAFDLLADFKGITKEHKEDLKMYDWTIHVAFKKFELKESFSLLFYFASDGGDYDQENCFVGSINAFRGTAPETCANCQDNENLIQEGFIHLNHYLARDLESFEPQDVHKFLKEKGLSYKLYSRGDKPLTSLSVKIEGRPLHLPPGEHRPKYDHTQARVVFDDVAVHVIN
As to the kind of experiment: Inhibition of mushroom tyrosinase.

Assay [3] deals with B16-F10. As to the kind of experiment: Inhibition of melanin production in mouse B16F10 cells at 20 ug/ml after 72 hrs relative to control. The note with it: B16-F10, 72 h. The class given is functional.
Assay [4] deals with B16-F10. As to the kind of experiment: Cytotoxicity against mouse B16F10 cells at 40 ug/ml after 72 hrs by MTT assay. The class given is functional. On the technique in general: Tetrazolium dyes change colour on reduction, which living cells bring about.
For assay [5], the system named is B16-F10. As to the kind of experiment: Inhibition of melanin production in mouse B16F10 cells at 40 ug/ml after 72 hrs relative to control. The class given is functional. The note with it: B16-F10, 72 h.

Some results are limits rather than exact numbers.

The IC50 is the concentration needed to halve the response being measured. What is called inhibition is the percentage by which the read-out fell short of the control. Low values mean little suppression, high ones strong suppression. Regarding `O=C(/C=C/c1cc(=O)c(O)co1)OCCOCCO`, the Activity in assay [1] came to 84.6%; in assay [4], 89.4%. In assay [2], the half-maximal inhibitory concentration (IC50) was 26.5 µM. Besides, in assay [3], the inhibition at 20 µg/mL amounted to 20.1%. In assay [5], this compound had an inhibition at 40 µg/mL of 32.4%.
In the case of `COCCOC(=O)/C=C/c1cc(=O)c(O)co1`, the Activity in assay [1] was found to be 81.1%; in assay [4], 65.4%. Also, the concentration for half-maximal inhibition (IC50) in assay [2] amounted to 98.1 µM. The compound further yielded an inhibition at 20 µg/mL in assay [3] of 29.6%. Moreover, in assay [5], at 40 µg/mL the inhibition was 47.8%.
On the same counts, the results for `O=C(/C=C/c1cc(=O)c(O)co1)OCCOCCOCCO` are 84.9%, 78.5%, 79.2 µM, 8.7% and 17.9%.
Take `O=C(/C=C/c1cc(=O)c(O)co1)OCCO`: the Activity in assay [1] is 80.5%; in assay [4] it was 74.8%. This compound had a half-inhibitory concentration (IC50) in assay [2] of 74.9 µM. Moreover, in assay [3], the inhibition at 20 µg/mL stood at 30%. Further, the inhibition at 40 µg/mL in assay [5] is 41.6%.
On the same counts, the results for `COCCOCCOCCOC(=O)/C=C/c1cc(=O)c(O)co1` are 83.9%, 79.7%, 67.6 µM, 11% and 25.4%.
The corresponding values for `CCOC(=O)/C=C/c1cc(=O)c(O)co1` are 72%, 39.2%, 36.3 µM, 46.1% and 65%.
On the same counts, the results for `CC(C)OC(=O)/C=C/c1cc(=O)c(O)co1` are 50.9%, 37.4%, 80.3 µM, 19.5% and 69.8%.
As to `CCCCCCCCOC(=O)/C=C/c1cc(=O)c(O)co1`, the Activity in assay [1] worked out at 85%; in assay [4], 62.5%. Moreover, the 50% inhibitory concentration (IC50) in assay [2] is greater than 400 µM. Moreover, testing at 20 µg/mL in assay [3] gave an inhibition of 25%. 40 µg/mL produced 54.6% inhibition in assay [5].
On the same counts, the results for `COCCOCCOC(=O)/C=C/c1cc(=O)c(O)co1` are 88.7%, 83.4%, 59.1 µM, 19.5% and 24%.

For the origin of these results see ChEMBL document CHEMBL1139277, “Synthesis of tyrosinase inhibitory (4-oxo-4H-pyran-2-yl)acrylic acid ester derivatives” (Bioorg Med Chem Lett, 2009).
